Data: US8183263B2 (priority 2007, dated 2012)

system: HCV replicon; experiment: HCV replicon replication assay (NPT level by captured ELISA); assay type: cell-based; conditions: Hepatitis C virus, 72 h; Huh-7 HCV replicon-containing cells, three days incubation; read-out: Activity (inhibition of HCV replicon replication)
Protocol: Compounds claimed herein are tested for the ability to inhibit viral replication of the Hepatitis C replicon in cultured cells in which the HCV replicon construct has been incorporated. The HCV replicon system was described by Bartenschlager, et. al (Science, 285, pp. 110-113 (1999)). The replicon system is predictive of in vivo anti-HCV activity; compounds that are active in humans uniformly evidence activity in the replicon assay.
In this assay HCV replicon containing cells are treated with different concentrations of the test compound to ascertain the ability of the test compound to suppress replication of the HCV replicon. As a positive control, HCV replicon-containing cells are treated with different concentrations of interferon alpha, a known inhibitor of HCV replication. The replicon assay system includes Neomycin Phosphotransferase (NPT) as a component of the replicon itself in order to detect the transcription of replicon gene products in the host cell. Cells in which the HCV replicon is actively replicating have high levels of NPT; the level of NPT is proportional to HCV replication. […] The NPT level of each sample is measured using a captured ELISA.
A protocol for testing compounds for the ability to inhibit viral replication of the Hepatitis C replicon cultured cells in which the replicon construct has been incorporated, follows.
The HCV replicon contains, 5′-3′, the HCV-IRES, the neomycin phosphotransferase (neo) gene, the IRES of encephalomyocarditis virus, which directs translation of HCV sequences NS3 to NS5B, and the 3′-NTR. The sequence of the HCV replicon has been deposited in GenBank (Accession no. AJ242652).
The replicon is transfected into Huh-7 cells using standard methods such as electroporation.
The equipment and materials include, but are not limited to, Huh-7 HCV replicon-containing cells, maintenance media (DMEM (Dulbecco's modified Eagle media) supplemented with 10% FBS, L-glutamine, non-essential amino acids, penicillin (100 units/ml), streptomycin (100 micrograms/ml), and 500 micrograms/ml of Geneticin (G418), screening media (DMEM supplemented with 10% FBS, L-glutamine, non-essential amino acids, penicillin (100 units/ml) and streptomycin (100 micrograms/ml)), 96 well tissue culture plates (flat bottom), 96 well plates (U bottom for drug dilution), Interferon alpha for positive control, fixation reagent (such as methanol: acetone), primary antibody (rabbit anti-NPTII), secondary antibody: Eu—N1 1, and enhancement solution.
HCV replicon-containing cells are rinsed with once PBS once; 2 mls of trypsin are then added. Cells are incubated at 37° C. in a 5% CO2 incubator for 3-5 minutes. 10 mls of complete medium is added to stop the reaction. Cells are blown gently, put into a 15 ml tube, and spun at 1200 rpm for four minutes. The trypsin/medium solution is removed and 5 mls of medium (500 ml DMEM (high glucose)) from BRL catalog #12430-054; 50 mls 10% FBS, 5% Geneticin G418 (50 mg/ml, BRL catalog #10131-035), 5 ml MEM non-essential amino acids (100×BRL #11140-050) and 5 ml pen-strep (BRL #15140-148) is added. The cells and media are mixed carefully
Cells are plated with screening medium (500 ml DMEM (BRL #21063-029), 50 ml FBS (BRL #10082-147) and 5 ml MEM non-essential amino acid (BRL #11140-050) at 6000-7500 cells/100 μl/well of 96 well plate (6-7.5×10^5 cells/10 ml/plate). Plates are placed into 37° C. 5% CO2 incubator overnight.
The following morning, drugs (test compounds or interferon alpha) are diluted in 96 well U bottom plates with media or DMSO/media, depending on the final concentration chosen for screening. Generally for 6 concentrations of each test compounds ranging from 10 micromolar to 0.03 micromolar are applied. 100 μl of the test compound dilution is placed in wells of the 96 well plate containing the HCV replicon cells. Media without drug is added to some wells as a negative controls. DMSO is known to affect cell growth. […]

Row | SMILES | EC50
1 | CCc1ccc(Oc2ccc(Nc3nc(-c4cnc(OC)nc4)cs3)cc2C(F)(F)F)cc1 [Cmp 53, N-(4-(4-ethylphenoxy)-3-(trifluoromethyl)phenyl)-4-(2-methoxypyrimidin-5-yl)thiazol-2-amine] | < 1 µM
2 | COc1ncc(-c2csc(Nc3ccc(Oc4ccc(Cl)cc4)c(C(F)(F)F)c3)n2)cn1 [Cmp 54, N-(4-(4-chlorophenoxy)-3-(trifluoromethyl)phenyl)-4-(2-methoxypyrimidin-5-yl)thiazol-2-amine] | < 1 µM
3 | CCCCCc1nc2cc(Nc3nc(-c4cnc(OC)nc4)cs3)ccc2o1 [Cmp 55, N-(4-(2-methoxypyrimidin-5-yl)thiazol-2-yl)-2-pentylbenzo[d]oxazol-5-amine] | < 1 µM
4 | CCCCCc1nc2cc(Nc3nc(-c4cnc(OC)nc4)c(F)s3)ccc2o1 [Cmp 56, N-(5-fluoro-4-(2-methoxypyrimidin-5-yl)thiazol-2-yl)-2-pentylbenzo[d]oxazol-5-amine] | < 1 µM
5 | CCCCCCCc1nc2cc(Nc3nc(-c4cnc(OC)nc4)c(F)s3)ccc2o1 [Cmp 57, N-(5-fluoro-4-(2-methoxypyrimidin-5-yl)thiazol-2-yl)-2-heptylbenzo[d]oxazol-5-amine] | < 1 µM
6 | Cc1ccc(Nc2nc(-c3cccnc3)c(F)s2)cc1OCCOc1ccccc1 [Cmp 58, 5-fluoro-N-(4-methyl-3-(2-phenoxyethoxy)phenyl)-4-(pyridin-3-yl)thiazol-2-amine] | < 1 µM
7 | Cc1ccc(Nc2nc(-c3cccnc3)c(F)s2)cc1OCC1CCCCC1 [Cmp 59, N-(3-(cyclohexylmethoxy)-4-methylphenyl)-5-fluoro-4-(pyridin-3-yl)thiazol-2-amine] | < 1 µM
8 | Cc1ccc(Nc2nc(-c3ccc(F)cc3)c(F)s2)cc1OCCOc1ccccc1 [Cmp 60, 5-fluoro-4-(4-fluorophenyl)-N-(4-methyl-3-(2-phenoxyethoxy)phenyl)thiazol-2-amine] | < 1 µM
9 | Cc1ccc(Nc2nc(-c3ccc(F)cc3)c(F)s2)cc1OCC1CCCCC1 [Cmp 61, N-(3-(cyclohexylmethoxy)-4-methylphenyl)-5-fluoro-4-(4-fluorophenyl)thiazol-2-amine] | < 1 µM
10 | CCCCCCCCOc1cc(Nc2nc(-c3ccc(F)cc3)c(F)s2)ccc1C [Cmp 62, 5-fluoro-4-(4-fluorophenyl)-N-(4-methyl-3-(octyloxy)phenyl)thiazol-2-amine] | < 1 µM
11 | COc1ncc(-c2nc(Nc3ccc(C)c(OCC4CCCCC4)c3)sc2F)cn1 [Cmp 63, N-(3-(cyclohexylmethoxy)-4-methylphenyl)-5-fluoro-4-(2-methoxypyrimidin-5-yl)thiazol-2-amine] | < 1 µM
12 | CCCCCc1nc2cc(Nc3nc(-c4cccnc4)cs3)ccc2o1 [Cmp 64] | < 1 µM
13 | CCCCCc1nc2cc(Nc3nc(-c4cccnc4)c(F)s3)ccc2o1 [Cmp 65, N-(5-fluoro-4-(pyridin-3-yl)thiazol-2-yl)-2-pentylbenzo[d]oxazol-5-amine] | < 1 µM
14 | CCCCCc1nc2ccc(Nc3nc(-c4cccnc4)cs3)cc2o1 [Cmp 66, 2-pentyl-N-(4-(pyridin-3-yl)thiazol-2-yl)benzo[d]oxazol-6-amine] | < 1 µM
15 | CCCCCc1nc2ccc(Nc3nc(-c4cccnc4)c(F)s3)cc2o1 [Cmp 67, N-(5-fluoro-4-(pyridin-3-yl)thiazol-2-yl)-2-pentylbenzo[d]oxazol-6-amine] | < 1 µM
16 | CCCCCCCCOc1cc(Nc2nc(-c3cccnc3)cs2)ccc1C(F)(F)F [Cmp 68, N-(3-(octyloxy)-4-(trifluoromethyl)phenyl)-4-(pyridin-3-yl)thiazol-2-amine] | < 1 µM
17 | CCCCCOc1cc(Nc2nc(-c3cccnc3)cs2)ccc1C(F)(F)F [Cmp 69, N-(3-(pentyloxy)-4-(trifluoromethyl)phenyl)-4-(pyridin-3-yl)thiazol-2-amine] | < 1 µM

Row | SMILES | EC50
18 | Fc1sc(Nc2ccc(Oc3ccccc3)c(C(F)(F)F)c2)nc1-c1cccnc1 [Cmp 70, 5-fluoro-N-(4-phenoxy-3-(trifluoromethyl)phenyl)-4-(pyridin-3-yl)thiazol-2-amine] | < 1 µM
19 | CCCCCCCCOc1cc(Nc2nc(-c3cnc(OC)nc3)cs2)ccc1C(F)(F)F [Cmp 71, 4-(2-methoxypyrimidin-5-yl)-N-(3-(octyloxy)-4-(trifluoromethyl)phenyl)thiazol-2-amine] | < 1 µM
20 | CCCCCOc1cc(Nc2nc(-c3cnc(OC)nc3)cs2)ccc1C(F)(F)F [Cmp 72, 4-(2-methoxypyrimidin-5-yl)-N-(3-(pentyloxy)-4-(trifluoromethyl)phenyl)thiazol-2-amine] | < 1 µM
21 | Cc1ccc(CCCCCc2ccc(Nc3nc(-c4cccnc4)cs3)cc2C(F)(F)F)cc1 [Cmp 73, 4-(pyridin-3-yl)-N-(4-(5-p-tolylpentyl)-3-(trifluoromethyl)phenyl)thiazol-2-amine] | < 1 µM
22 | COc1ncc(-c2csc(Nc3ccc(CCCCCc4ccc(C)cc4)c(C(F)(F)F)c3)n2)cn1 [Cmp 74, 4-(2-methoxypyrimidin-5-yl)-N-(4-(5-p-tolylpentyl)-3-(trifluoromethyl)phenyl)thiazol-2-amine] | < 1 µM
23 | CCCCCCCCOc1cc(Nc2nc(-c3ccc(F)cc3)cs2)ccc1C(F)(F)F [Cmp 75, 4-(4-fluorophenyl)-N-(3-(octyloxy)-4-(trifluoromethyl)phenyl)thiazol-2-amine] | < 1 µM
24 | CCCCCOc1cc(Nc2nc(-c3ccc(F)cc3)cs2)ccc1C(F)(F)F [Cmp 76, 4-(4-fluorophenyl)-N-(3-(pentyloxy)-4-(trifluoromethyl)phenyl)thiazol-2-amine] | < 1 µM
25 | CCCCCOc1cc(Nc2nc(-c3cnc(OC)nc3)c(F)s2)ccc1C(F)(F)F [Cmp 77, 5-fluoro-4-(2-methoxypyrimidin-5-yl)-N-(3-(pentyloxy)-4-(trifluoromethyl)phenyl)thiazol-2-amine] | < 1 µM
26 | CCCCCCCCOc1cc(Nc2nc(-c3cccnc3)c(F)s2)ccc1C(F)(F)F [Cmp 78, 5-fluoro-N-(3-(octyloxy)-4-(trifluoromethyl)phenyl)-4-(pyridin-3-yl)thiazol-2-amine] | < 1 µM
27 | CCCCCOc1cc(Nc2nc(-c3cccnc3)c(F)s2)ccc1C(F)(F)F [Cmp 79, 5-fluoro-N-(3-(pentyloxy)-4-(trifluoromethyl)phenyl)-4-(pyridin-3-yl)thiazol-2-amine] | 1 to 10 µM
28 | CCCCCCCCc1cc(Nc2nc(-c3cccnc3)cs2)cc(C(F)(F)F)c1 [Cmp 80, N-(3-octyl-5-(trifluoromethyl)phenyl)-4-(pyridin-3-yl)thiazol-2-amine] | < 1 µM
29 | CC(=O)c1cc(Nc2nc(-c3cccnc3)c(F)s2)ccc1Oc1ccccc1 [Cmp 81, 1-(5-(5-fluoro-4-(pyridin-3-yl)thiazol-2-ylamino)-2-phenoxyphenyl)ethanone] | < 1 µM
30 | CC(F)(F)c1cc(Nc2nc(-c3cccnc3)c(F)s2)ccc1Oc1ccccc1 [Cmp 82, N-(3-(1,1-difluoroethyl)-4-phenoxyphenyl)-5-fluoro-4-(pyridin-3-yl)thiazol-2-amine] | < 1 µM
31 | CC(=O)c1cc(Nc2nc(-c3cccnc3)cs2)ccc1Oc1ccc(Cl)cc1 [Cmp 84, 1-(2-(4-chlorophenoxy)-5-(4-(pyridin-3-yl)thiazol-2-ylamino)phenyl)ethanone] | < 1 µM
32 | CC(=O)c1cc(Nc2nc(-c3cccnc3)cs2)ccc1Oc1ccccc1 [Cmp 85, 1-(2-phenoxy-5-(4-(pyridin-3-yl)thiazol-2-ylamino)phenyl)ethanone] | < 1 µM
33 | COc1ncc(-c2csc(Nc3ccc(Oc4ccccc4)c(C(C)=O)c3)n2)cn1 [Cmp 86, 1-(5-(4-(2-methoxypyrimidin-5-yl)thiazol-2-ylamino)-2-phenoxyphenyl)ethanone] | < 1 µM
